# Measured values reported in patent US9113629B2, “4-amino-6-(4-substituted-phenyl)-picolinates and 6-amino-2-(4-substituted-phenyl)-pyrimidine-4-carboxylates and their use as herbicides” (DOW AGROSCIENCES LLC, priority 2013, dated 2015).
# Test system: LAMSS
# Assay: Post-emergent Test III, herbicidal activity in wheat and barley
# Type: in vivo
# Details: post-emergence, 504 h; 35 g ai/ha; read-out: Visual Growth Reduction (%) 21 Days After Application LAMSS
# Method in brief: (§1)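 Plants at the second to third true-leaf stage, grown in a greenhouse at about 18/17 °C with a 14 h photoperiod, were sprayed post-emergence at 187 L/ha with the high rate and ½× to 1/16× serial dilutions in an acetone/DMSO/crop-oil/surfactant carrier. Injury was rated visually at 21 d on a 0–100% scale, and GR20–GR90 were derived by probit analysis.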
row,Compound,pest or weed control at 35 g/ha [%]
1,Nc1c(F)c(-c2ccc(OC(F)F)cc2)nc(C(=O)O)c1Cl [Compound 143],85 to 94
2,Nc1c(F)c(-c2ccc(Br)c(F)c2F)nc(C(=O)O)c1Cl [Compound 147],85 to 94
3,COC(=O)c1nc(-c2ccc(C(F)F)cc2)c(F)c(N)c1Cl [Compound 209],85 to 94
4,C=Cc1c(C(=O)O)nc(-c2ccc(Cl)c(F)c2)c(F)c1N [Compound 214],75 to 84

# Same assay, conditions: post-emergence, 504 h; 70 g ai/ha; read-out: Visual Growth Reduction (%) 21 Days After Application LAMSS
row,Compound,pest or weed control at 70 g/ha [%]
1,Nc1c(F)c(-c2ccc(OC(F)F)cc2)nc(C(=O)O)c1Cl [Compound 143],85 to 94
2,Nc1c(F)c(-c2ccc(Br)c(F)c2F)nc(C(=O)O)c1Cl [Compound 147],85 to 94
3,COC(=O)c1nc(-c2ccc(C(F)F)cc2)c(F)c(N)c1Cl [Compound 209],85 to 94
4,C=Cc1c(C(=O)O)nc(-c2ccc(Cl)c(F)c2)c(F)c1N [Compound 214],75 to 84

# Same assay, conditions: post-emergence, 504 h; 140 g ai/ha; read-out: Visual Growth Reduction (%) 21 Days After Application LAMSS
row,Compound,pest or weed control at 140 g/ha [%]
1,Nc1c(F)c(-c2ccc(OC(F)F)cc2)nc(C(=O)O)c1Cl [Compound 143],85 to 94
2,Nc1c(F)c(-c2ccc(Br)c(F)c2F)nc(C(=O)O)c1Cl [Compound 147],85 to 94
3,C=Cc1c(C(=O)O)nc(-c2ccc(Cl)c(F)c2)c(F)c1N [Compound 214],85 to 94

# Same assay, conditions: probit analysis, dose for growth reduction of 50 percent, 21 days after application
row,Compound,GR50 LAMSS [g ai/ha]
1,Nc1c(F)c(-c2ccc(OC(F)F)cc2)nc(C(=O)O)c1Cl [Compound 143],1
2,Nc1c(F)c(-c2ccc(Br)c(F)c2F)nc(C(=O)O)c1Cl [Compound 147],1
3,COC(=O)c1nc(-c2ccc(C(F)F)cc2)c(F)c(N)c1Cl [Compound 209],7
4,C=Cc1c(C(=O)O)nc(-c2ccc(Cl)c(F)c2)c(F)c1N [Compound 214],12

# Same assay, conditions: probit analysis, dose for growth reduction of 80 percent, 21 days after application
row,Compound,GR80 LAMSS [g ai/ha]
1,Nc1c(F)c(-c2ccc(OC(F)F)cc2)nc(C(=O)O)c1Cl [Compound 143],1
2,Nc1c(F)c(-c2ccc(Br)c(F)c2F)nc(C(=O)O)c1Cl [Compound 147],8
3,COC(=O)c1nc(-c2ccc(C(F)F)cc2)c(F)c(N)c1Cl [Compound 209],29
4,C=Cc1c(C(=O)O)nc(-c2ccc(Cl)c(F)c2)c(F)c1N [Compound 214],33

# Test system: PAPRH: common poppy (Papaver rhoeas)
# Assay: as above
# Type: in vivo
# Details: Papaver rhoeas, post-emergence, 504 h; 35 g ai/ha; read-out: Visual Growth Reduction (%) 21 Days After Application PAPRH
# Method in brief: as §1
row,Compound,pest or weed control at 35 g/ha [%]
1,Nc1c(F)c(-c2ccc(OC(F)F)cc2)nc(C(=O)O)c1Cl [Compound 143],85 to 94

# Same assay, conditions: Papaver rhoeas, post-emergence, 504 h; 70 g ai/ha; read-out: Visual Growth Reduction (%) 21 Days After Application PAPRH
row,Compound,pest or weed control at 70 g/ha [%]
1,Nc1c(F)c(-c2ccc(OC(F)F)cc2)nc(C(=O)O)c1Cl [Compound 143],85 to 94

# Same assay, conditions: Papaver rhoeas, post-emergence, 504 h; 140 g ai/ha; read-out: Visual Growth Reduction (%) 21 Days After Application PAPRH
row,Compound,pest or weed control at 140 g/ha [%]
1,Nc1c(F)c(-c2ccc(OC(F)F)cc2)nc(C(=O)O)c1Cl [Compound 143],85 to 94

# Same assay, conditions: probit analysis, dose for growth reduction of 50 percent, 21 days after application
row,Compound,GR50 PAPRH [g ai/ha]
1,Nc1c(F)c(-c2ccc(OC(F)F)cc2)nc(C(=O)O)c1Cl [Compound 143],1

# Same assay, conditions: probit analysis, dose for growth reduction of 80 percent, 21 days after application
row,Compound,GR80 PAPRH [g ai/ha]
1,Nc1c(F)c(-c2ccc(OC(F)F)cc2)nc(C(=O)O)c1Cl [Compound 143],8

# Test system: ALOMY: black-grass (Alopecurus myosuroides)
# Assay: as above
# Type: in vivo
# Details: Alopecurus myosuroides, post-emergence, 504 h; 35 g ai/ha; read-out: Visual Growth Reduction (%) 21 Days After Application ALOMY
# Method in brief: as §1
row,Compound,pest or weed control at 35 g/ha [%]
1,Nc1c(F)c(-c2ccc(OC(F)F)cc2)nc(C(=O)O)c1Cl [Compound 143],0 to 29
2,Nc1c(F)c(-c2ccc(Br)c(F)c2F)nc(C(=O)O)c1Cl [Compound 147],60 to 74
3,COC(=O)c1nc(-c2ccc(C(F)F)cc2)c(F)c(N)c1Cl [Compound 209],0 to 29
4,C=Cc1c(C(=O)O)nc(-c2ccc(Cl)c(F)c2)c(F)c1N [Compound 214],30 to 44

# Same assay, conditions: Alopecurus myosuroides, post-emergence, 504 h; 70 g ai/ha; read-out: Visual Growth Reduction (%) 21 Days After Application ALOMY
row,Compound,pest or weed control at 70 g/ha [%]
1,Nc1c(F)c(-c2ccc(OC(F)F)cc2)nc(C(=O)O)c1Cl [Compound 143],60 to 74
2,Nc1c(F)c(-c2ccc(Br)c(F)c2F)nc(C(=O)O)c1Cl [Compound 147],85 to 94
3,COC(=O)c1nc(-c2ccc(C(F)F)cc2)c(F)c(N)c1Cl [Compound 209],0 to 29
4,C=Cc1c(C(=O)O)nc(-c2ccc(Cl)c(F)c2)c(F)c1N [Compound 214],45 to 59

# Same assay, conditions: Alopecurus myosuroides, post-emergence, 504 h; 140 g ai/ha; read-out: Visual Growth Reduction (%) 21 Days After Application ALOMY
row,Compound,pest or weed control at 140 g/ha [%]
1,Nc1c(F)c(-c2ccc(OC(F)F)cc2)nc(C(=O)O)c1Cl [Compound 143],60 to 74
2,Nc1c(F)c(-c2ccc(Br)c(F)c2F)nc(C(=O)O)c1Cl [Compound 147],85 to 94
3,C=Cc1c(C(=O)O)nc(-c2ccc(Cl)c(F)c2)c(F)c1N [Compound 214],30 to 44

# Same assay, conditions: probit analysis, dose for growth reduction of 50 percent, 21 days after application
row,Compound,GR50 ALOMY [g ai/ha]
1,Nc1c(F)c(-c2ccc(OC(F)F)cc2)nc(C(=O)O)c1Cl [Compound 143],71
2,Nc1c(F)c(-c2ccc(Br)c(F)c2F)nc(C(=O)O)c1Cl [Compound 147],20
3,COC(=O)c1nc(-c2ccc(C(F)F)cc2)c(F)c(N)c1Cl [Compound 209],>140
4,C=Cc1c(C(=O)O)nc(-c2ccc(Cl)c(F)c2)c(F)c1N [Compound 214],95

# Same assay, conditions: probit analysis, dose for growth reduction of 80 percent, 21 days after application
row,Compound,GR80 ALOMY [g ai/ha]
1,Nc1c(F)c(-c2ccc(OC(F)F)cc2)nc(C(=O)O)c1Cl [Compound 143],>140
2,Nc1c(F)c(-c2ccc(Br)c(F)c2F)nc(C(=O)O)c1Cl [Compound 147],47
3,COC(=O)c1nc(-c2ccc(C(F)F)cc2)c(F)c(N)c1Cl [Compound 209],>140
4,C=Cc1c(C(=O)O)nc(-c2ccc(Cl)c(F)c2)c(F)c1N [Compound 214],>140
